These are literature values, as cited in patent US6562757B1, “Plant-protection treatment of plants and compositions which can be used for this purpose” (Cerexagri S.A., priority 1999, dated 2003).

Each structure is given as a SMILES string.

For the data set the following is noted: pH 7.

For `[Cl-].[Cu+2].[Cu+2].[OH-].[OH-].[OH-]` [copper oxychloride], the “amount of soluble aqueous copper (Cu2+(aq)) released” value was 1 to 10 mg/L. With `[Cu+2].[OH-].[OH-]` [copper hydroxide], the “amount of soluble aqueous copper (Cu2+(aq)) released” value was 1 to 10 mg/L.
